“Also recorded” adds a separate entry of the source. Where no end group is shown, it is not given here. The star is where a group is joined. For = O=C*
Key:
[1] = Temperature stability, bioactivity by agar well diffusion; format: physicochemical; conditions: purified peptide, 10, 30, 40, 50, 80, 90 or 121°C for 15 minutes; agar well diffusion with L. lactis HP
Method: (§1) The susceptibility of purified capidermicin peptide to temperature, pH and protease enzymes was investigated through well diffusion assays. To determine temperature stability the purified peptide was subjected to 10, 30, 40, 50, 80, 90, 121°C for 15 minutes. Bioactivity was then determined by carrying out an agar well diffusion assay with L. lactis HP as the bacterial indicator. To evaluate the susceptibility of the peptide to varying pH values, the purified peptide solution was adjusted to pH 2–11 using 1M HCl or 1M NaOH, respectively. After a brief vortex, the peptide was incubated at room temperature for 15 minutes, and the bioactivity was again determined with the well diffusion assay with L. lactis HP. The susceptibility of the peptide to proteolytic cleavage was analysed using trypsin, α-chymotrypsin, pepsin and proteinase K (Sigma-Aldrich). Protease enzymes were dissolved in 100 mM Tris-HCl– 10 mM CaCl2, to a final concentration of 100 μg/ml. Preparations of capidermicin were incubated with the various enzymes at 37°C for 4 hours and the bioactivity of capidermicin was reassessed using the well diffusion assay described above.

[2] = pH stability, bioactivity by agar well diffusion; format: physicochemical; conditions: 15 minutes at room temperature, agar well diffusion with L. lactis HP
Method: as §1

proteinase K = molecular target: T1, proteinase K (Parengyodontium album, UniProt P06873); conditions: previously observed; cited from earlier work
T1 construct: purchased Sigma-Aldrich
T1 sequence (P06873 106-384): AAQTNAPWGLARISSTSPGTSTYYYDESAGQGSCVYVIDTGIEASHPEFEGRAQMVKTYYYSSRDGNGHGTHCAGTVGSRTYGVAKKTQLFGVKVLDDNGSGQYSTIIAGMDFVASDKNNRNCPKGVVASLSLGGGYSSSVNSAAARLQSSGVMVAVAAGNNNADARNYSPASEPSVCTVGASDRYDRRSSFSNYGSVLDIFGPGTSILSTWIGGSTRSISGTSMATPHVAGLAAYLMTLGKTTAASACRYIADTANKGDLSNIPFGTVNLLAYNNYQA
Method: (§2) Similar findings have been reported for epidermicin NI01 [42] and lacticin Q [41]. While capidermicin is insensitive to α-chymotrypsin and pepsin, a 70% reduction in activity was observed when it was treated with proteinase K or trypsin. […] Resistance to proteases has been reported for other staphyloco ...

trypsin = conditions: cited from earlier work
Method: as §2

Substance | Antimicrobial activity following heat treatment [1] | Bioactivity following exposure to pH 2–8 ([2]; pH adjusted with 1M HCl or 1M NaOH) | Decrease in zone of inhibition at pH 9–11 ([2]; pH adjusted with 1M NaOH) [%] | Reduction in activity for proteinase K (proteinase K) [%] | Reduction in activity for trypsin (trypsin) [%]
For-MSKVISALSKYGPKAVNWAKNHKGQIANWLLHGLSIPDIVQNVKNAVGIK [capidermicin] | retained; also recorded: unaffected | full bioactivity | 70 | – | –
epidermicin NI01 | – | – | – | 75 | 50
